Structures can show the parent of a compound that is named as a salt.

This note sets out measurements from patent publication US7776892B2, “Fungicidal composition comprising a pyridylethylbenzamide derivative and a compound capable of inhibiting the spores germination or mycelium growth by acting on different metabolic routes” (Bayer Cropscience S.A., priority 2004, dated 2010).

Holding throughout (format): in vivo
Test [1] deals with Botrytis cinerea. As to the kind of experiment: Example 7: efficacy against Botrytis cinerea on gherkin plants, Compound 1 and benalaxyl. The settings on record: grading 5 to 7 days after contamination. The method, then:
(§1) The active ingredients tested are prepared by potter homogenisation in a mixture of acetone/tween/water. This suspension is then diluted with water to obtain the desired active material concentration.
(§2) Gherkin plants (Petit vert de Paris variety) in starter cups, sown on a 50/50 peat soil-pozzolana substrate and grown at 18-20° C., are treated at the cotyledon Z11 stage by spraying with the aqueous suspension described above. Plants, used as controls, are treated with an aqueous solution not containing the active material.
(§3) After 24 hours, the plants are contaminated by depositing drops of an aqueous suspension of Botrytis cinerea spores (150,000 spores per ml) on upper surface of the leaves. The spores are collected from a 15-day-old culture and are suspended in a nutrient solution composed of: • 20 g/L of gelatine • 50 g/L of cane sugar • 2 g/L of NH4NO3 • 1 g/L of KH2PO4
(§4) The contaminated gherkin plants are settled for 5/7 days in a climatic room at 15-11° C. (day/night) and at 80% relative humidity. Grading (% of efficacy) is carried out 5 to 7 days after the contamination, in comparison with the control plants.

The test system of another test is Puccinia recondita. In words: Example 3: efficacy against Puccinia recondita on wheat plants, Compound 1 and captan. Conditions: 240 h, grading 10 days after contamination. The method, then: as §1
Wheat plants (Scipion variety) in starter cups, sown on 50/50 peat soil-pozzolana substrate and grown at 12° C., are treated at the 1-leaf stage (10 cm tall) by spraying with the aqueous suspension described above.
(§5) Plants, used as controls, are treated with an aqueous solution not containing the active material.
After 24 hours, the plants are contaminated by spraying the leaves with an aqueous suspension of Puccinia recondita spores (100,000 spores per ml). The spores are collected from a 10-day-old contaminated wheat and are suspended in water containing 2.5 ml/l of tween 80 10%. The contaminated wheat plants are incubated for 24 hours at 20° C. and at 100% relative humidity, and then for 10 days at 20° C. and at 70% relative humidity. Grading is carried out 10 days after the contamination, in comparison with the control plants.

Test [2] concerns Erysiphe graminis f. sp. tritici. In words: Example 14: efficacy against Erysiphe graminis f. sp. tritici on wheat plants, Compound 1 and chlorothalonil. The settings on record: Blumeria graminis, grading 7 to 14 days after contamination. The method, then:
The formulated compounds are diluted with water to obtain the desired active material concentration
Wheat plants (Audace variety) in starter cups, sown on 50/50 peat soil-pozzolana substrate and grown at 12° C., are treated at the 1-leaf stage (10 cm tall) by spraying with the aqueous suspension described above.
as §5
After 24 hours, the plants are contaminated by dusting them with Erysiphe graminis f. sp. tritici spores, the dusting being carried out using diseased plants.
Grading is carried out 7 to 14 days after the contamination, in comparison with the control plants.

Test [3] relates to Botrytis cinerea. In words: Example 1: efficacy against Botrytis cinerea on gherkin plants, Compound 1 and mancozeb. The settings on record: grading 5 to 7 days after contamination. The method, then:
(§6) Gherkin plants (Petit vert de Paris variety) in starter cups, sown on a 50/50 peat soil-pozzolana substrate and grown at 18-20° C., are treated at the cotyledon Z11 stage by spraying with the aqueous suspension described above.
as §3, §4

The subject of test [4] is Botrytis cinerea. In words: Example 2: efficacy against Botrytis cinerea on gherkin plants, Compound 1 and propineb. The settings on record: grading 5 to 7 days after contamination. The method, then: as §6, §3, §4
Test [5] deals with Botrytis cinerea. As to the kind of experiment: Example 4: efficacy against Botrytis cinerea on gherkin plants, Compound 1 and folpet. The settings on record: grading 5 to 7 days after contamination. The method, then: (§7) The formulated compounds are diluted with water to obtain the desired active material concentration. Gherkin plants (Petit vert de Paris variety) in starter cups, sown on a 50/50 peat soil-pozzolana substrate and grown at 18-20° C., are treated at the cotyledon Z11 stage by spraying with the aqueous suspension described above. Plants, used as controls, are treated with an aqueous solution not containing the active material.
as §3, §4

Test [6] has as its system Botrytis cinerea. In words: Example 5: efficacy against Botrytis cinerea on gherkin plants, Compound 1 and iprodione. The settings on record: grading 5 to 7 days after contamination. The method, then: as §7, §3, §4
The test system of test [7] is Botrytis cinerea. As to the kind of experiment: Example 6: efficacy against Botrytis cinerea on gherkin plants, Compound 1 and fludioxonil. The method, then: as §1, §2, §3, §4
Test [8] relates to Botrytis cinerea. As to the kind of experiment: Example 8: efficacy against Botrytis cinerea on gherkin plants, Compound 1 and metalaxyl-M. The settings on record: grading 5 to 7 days after contamination. The method, then: as §1, §2, §3, §4
Test [9] deals with Botrytis cinerea. As to the kind of experiment: Example 9: efficacy against Botrytis cinerea on gherkin plants, Compound 1 and propamocarb-HCl. The settings on record: grading 5 to 7 days after contamination. The method, then:
as §6, §3, §4

Test [10] concerns Botrytis cinerea. As to the kind of experiment: Example 10: efficacy against Botrytis cinerea on gherkin plants, Compound 1 and fosetyl-Al. The settings on record: grading 5 to 7 days after contamination. The method, then:
(§8) The formulated compounds are diluted with water to obtain the desired active material concentration.
as §2, §3, §4

Test [11] has as its system Sphaerotheca fuliginea. In words: Example 11: efficacy against Sphaerotheca fuliginea on gherkin plants, Compound 1 and tolylfluanid. The settings on record: Podosphaera fuliginea, 504 h, grading 21 days after contamination. The method, then:
as §8
Gherkin plants (Vert petit de Paris variety) in starter cups, sown on a 50/50 peat soil-pozzolana substrate and grown at 20° C./23° C., are treated at the 2-leaves stage by spraying with the aqueous suspension described above. Plants, used as controls, are treated with an aqueous solution not containing the active material.
After 24 hours, the plants are contaminated by spraying them with an aqueous suspension of Sphaerotheca fuliginea spores (100,000 spores per ml). The spores are collected from a contaminated plants The contaminated gerkhin plants are incubated at about 20° C./25° C. and at 60/70% relative humidity.
(§9) Grading (% of efficacy) is carried out 21 days after the contamination, in comparison with the control plants.

The test system of another test is Peronospora parasitica. As to the kind of experiment: Example 12: efficacy against Peronospora parasitica on cabbage plants, Compound 1 and Compound A. Conditions: Hyaloperonospora parasitica, 120 h, grading 5 days after contamination. The method, then: The active ingredient tested is prepared by potter homogenisation in a concentrated suspension type formulation at 100 g/l. This suspension is then diluted with water to obtain the desired active material concentration.
Cabbage plants (Eminence variety) in starter cups, sown on a 50/50 peat soil-pozzolana substrate and grown at 18-20° C., are treated at the cotyledon stage by spraying with the aqueous suspension described above.
as §5
After 24 hours, the plants are contaminated by spraying them with an aqueous suspension of Peronospora parasitica spores (50,000 spores per ml). The spores are collected from infected plant.
The contaminated cabbage plants are incubated for 5 days at 20° C., under a humid atmosphere.
Grading is carried out 5 days after the contamination, in comparison with the control plants.

Test [12] has as its system Sphaerotheca fuliginea. In words: Example 13: efficacy against Sphaerotheca fuliginea on gherkin plants, Compound 1 and iprovalicarb. Conditions: grading 21 days after contamination. The method, then: Gherkin plants (Vert petit de Paris variety) in starter cups, sown on a 50/50 peat soil-pozzolana substrate and grown at 20° C./23° C., are treated at the 2-leaves stage by spraying with the aqueous suspension described above.
After 24 hours, the plants are contaminated by spraying them with an aqueous suspension of Sphaerotheca fuliginea spores (100 000 spores per ml). The spores are collected from a contaminated plants The contaminated gerkhin plants are incubated at about 20° C./25° C. and at 60/70% relative humidity.
as §9

As for `COC(=O)C(C)N(C(=O)Cc1ccccc1)c1c(C)cccc1C` (stereo not drawn) [Benalaxyl, benalaxyl, reference compound], in the test on Botrytis cinerea [1] (111 ppm), the Emax at 111 ppm stood at 7%.
In the test on Puccinia recondita, `O=C1C2CC=CCC2C(=O)N1SC(Cl)(Cl)Cl` (stereo not drawn) [Captan, captan] had an Emax at 125 ppm of 0% and an Emax at 250 ppm of 0%. For the same compound, the Emax at 500 ppm in the test with Puccinia recondita (500 ppm) is 10%.
Consider `N#Cc1c(Cl)c(Cl)c(Cl)c(C#N)c1Cl` [Chlorothalonil, chlorothalonil, reference compound], for which the Emax at 250 g/ha in test [2] was found to be 0%.
For the compound `O=C(NCCc1ncc(C(F)(F)F)cc1Cl)c1ccccc1C(F)(F)F` [Compound 1, N-{2-[3-chloro-5-(trifluoromethyl)-2-pyridinyl]ethyl}-2-trifluoromethylbenzamide], the Emax at 37 ppm in the test on Botrytis cinerea [3] (Botrytis cinerea, 37 ppm) was found to be 50%; in the test with Botrytis cinerea [4] (Botrytis cinerea, 37 ppm), 65%; in the test on Botrytis cinerea [5] (37 ppm), 50%; with Botrytis cinerea [6], 0%; in the test with Botrytis cinerea [7] (37 ppm, gherkin plants, grading 5 to 7 days after contamination), 38%; in the test on Botrytis cinerea [1] (37 ppm), 78%. This compound came in with an Emax at 37 ppm in the test on Botrytis cinerea [8] (Botrytis cinerea, 37 ppm) of 45%. Besides, the Emax at 111 ppm in the test on Botrytis cinerea [3] (Botrytis cinerea, 111 ppm) stood at 70%; in the test on Botrytis cinerea [4] (Botrytis cinerea, 111 ppm), 87%; with Botrytis cinerea [5] (111 ppm), 70%; in the test on Botrytis cinerea [9] (111 ppm), 70%; in the test on Botrytis cinerea [10] (Botrytis cinerea, 111 ppm), 70%. Besides, in the test with Puccinia recondita, the Emax at 125 ppm stood at 0%. The same compound returned an Emax at 250 ppm in the test with Puccinia recondita of 10%. The Emax at 12.3 ppm stood at 0% in the test with Botrytis cinerea [7] (12.3 ppm, gherkin plants, grading 5 to 7 days after contamination); 0% in the test with Peronospora parasitica; 65% with Sphaerotheca fuliginea [12] (Podosphaera fuliginea, 504 h, 12.3 ppm). In addition, the Emax at 4.1 ppm with Sphaerotheca fuliginea [11] (4.1 ppm) stood at 69%. In [2], this compound came in with an Emax at 250 g/ha of 30%. The same compound had an Emax at 500 g/ha in [2] (500 g/ha) of 60%.
In turn, `O=C(NCc1ncc(C(F)(F)F)cc1Cl)c1c(Cl)cccc1Cl` [Compound A, 2,6-dichloro-N-{[3-chloro-5-(tri-fluoromethyl)-2-pyridinyl]methyl}benzamide, reference compound] yielded an Emax at 12.3 ppm with Peronospora parasitica of 40%.
On to `N#Cc1c[nH]cc1-c1cccc2c1OC(F)(F)O2` [Fludioxonil, fludioxonil, reference compound], for which, in the test on Botrytis cinerea [7] (read-out: % Efficacy), the Emax at 4.1 ppm turned out to be 0%.
As for `O=C1c2ccccc2C(=O)N1SC(Cl)(Cl)Cl` [Folpet, folpet, reference compound], the Emax at 333 ppm in the test on Botrytis cinerea [5] (333 ppm) was 0%. The Emax at 1000 ppm with Botrytis cinerea [5] (1000 ppm) worked out at 0%.
In the case of `CCO[PH](=O)O` [Fosetyl-Al, fosetyl-Al, reference compound], the “% Efficacy” value in the test on Botrytis cinerea [10] (1000 ppm) amounted to 0%.
As for `CC(C)NC(=O)N1CC(=O)N(c2cc(Cl)cc(Cl)c2)C1=O` [Iprodione, iprodione], in the test with Botrytis cinerea [6], the Emax at 37 ppm turned out to be 0%. The compound also displayed an Emax at 111 ppm in the test on Botrytis cinerea [6] (111 ppm) of 90%.
With `Cc1ccc(C(C)NC(=O)[C@@H](NC(=O)OC(C)C)C(C)C)cc1` (stereo partly drawn) [Iprovalicarb, iprovalicarb, reference compound], the “% Efficacy” value in the test with Sphaerotheca fuliginea [12] (111 ppm) was 50%.
For the compound `COCC(=O)N(c1c(C)cccc1C)[C@H](C)C(=O)OC` [Metalaxyl-M, metalaxyl-M, reference compound], the “% Efficacy” value in the test with Botrytis cinerea [8] (111 ppm) amounted to 0%.
In the case of `CCCOC(=O)NCCCN(C)C` [Popamocarb-HCl, propamocarb-HCl, reference compound], in the test with Botrytis cinerea [9] (1000 ppm), the Emax at 1000 ppm amounted to 0%.
Compound `Cc1ccc(N(SC(F)(Cl)Cl)S(=O)(=O)N(C)C)cc1` [Tolylfluanid, tolylfluanid] gave an Emax at 12.3 ppm in the test with Sphaerotheca fuliginea [11] (12.3 ppm) of 0%. Besides, the Emax at 37 ppm with Sphaerotheca fuliginea [11] (37 ppm) amounted to 50%.
On to mancozeb [reference compound], for which the “% Efficacy” value in the test with Botrytis cinerea [3] (1000 ppm) came to 0%.
Consider propineb [reference compound], for which, in the test with Botrytis cinerea [4] (3000 ppm), the “% Efficacy” value is 0%.
